Experimental data: patent US11524938B2, “Aromatic sulfonamide derivatives” (Bayer Pharma Aktiengesellschaft, priority 2016, dated 2022)

How the values were obtained:
Type in all cases: cell-based
mouse P2X4 = target: T1, mouse P2X4 (Mus musculus, UniProt Q9JJX6); assay: FLIPR assay, mouse P2X4 1321N1 Astrocytoma cells; details: agonist Mg-ATP 0.5 μM (EC80)
T1 sequence (Q9JJX6 1-388): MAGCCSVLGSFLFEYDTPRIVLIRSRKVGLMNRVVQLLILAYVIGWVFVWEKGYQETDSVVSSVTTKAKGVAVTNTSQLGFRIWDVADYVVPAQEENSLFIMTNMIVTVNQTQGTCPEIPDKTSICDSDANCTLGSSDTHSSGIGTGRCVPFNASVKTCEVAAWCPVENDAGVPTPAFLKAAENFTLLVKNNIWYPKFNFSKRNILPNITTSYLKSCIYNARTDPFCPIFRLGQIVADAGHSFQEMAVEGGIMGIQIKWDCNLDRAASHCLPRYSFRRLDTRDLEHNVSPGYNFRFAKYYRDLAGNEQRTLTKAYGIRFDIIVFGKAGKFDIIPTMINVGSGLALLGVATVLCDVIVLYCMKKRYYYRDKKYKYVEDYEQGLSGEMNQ
Method: (§1) 1321N1 Astrocytoma cells stably expressing human P2X4 or rat P2X4 or mouse P2X4 were plated in Collagen I TC-treated microplate at a seeding density of 10000 cells/well and incubated overnight. P2X4 function was assessed by measuring intracellular calcium changes using the calcium-chelating dye Fluo8-AM (Molecular Devices) on a fluorescent imaging plate reader (FLEX/FLIPR station; Molecular Devices). On the day of the assay, the medium was removed and the cells were incubated for 30 min at 37 °C and 5% CO2 in 30 μL of dye buffer (Hank's balanced salt solution, 10 mM HEPES, 1.8 mM CaCl2, 1 mM MgCl2, 2 mM probenecid, 5 mM D-glucose monohydrate, 5 μM Fluo8-AM, pH=7.4). Compounds diluted in probenecid buffer (Hank's balanced salt solution, 10 mM HEPES, 1.8 mM CaCl2, 1 mM MgCl2, 2 mM probenecid, 5 mM D-glucose monohydrate, pH=7.4) were added in a volume of 10 μL and allowed to incubate for 30 min at room temperature. The final assay DMSO concentration was 0.25%. The agonist, Mg-ATP (Sigma), was added in a volume of 10 μL at a concentration representing the EC80 value. EC80 was determined to be 0.5 μM for human and mouse P2X4 and 5 μM for rat P2X4. The fluorescence was measured for an interval of 120 sec at 2 sec intervals. The excitation and emission wavelengths used to monitor fluorescence were 470-495 nm and 515-575 nm, respectively. The data was analyzed based on the increase in peak relative fluorescence units (RFU) compared to the basal fluorescence and the data was normalized to the agonist control. The compounds were tested in triplicates per plate and mean values were plotted in Excel XLFit to determine IC50 values, percentage of maximal inhibition and the Hill coefficients.

human P2X4 [1] = target: T2, human P2X4 (Homo sapiens, UniProt Q99571); assay: Human P2X4 HEK Cell FLIPR Assay; details: HEK293, HEK293 cells, agonist Bz-ATP at EC80; percentage of maximal inhibition; read-out: Human P2X4 HEK Cells (FLIPR Assay) avg Efficacy [%]
T2 sequence (Q99571 1-388): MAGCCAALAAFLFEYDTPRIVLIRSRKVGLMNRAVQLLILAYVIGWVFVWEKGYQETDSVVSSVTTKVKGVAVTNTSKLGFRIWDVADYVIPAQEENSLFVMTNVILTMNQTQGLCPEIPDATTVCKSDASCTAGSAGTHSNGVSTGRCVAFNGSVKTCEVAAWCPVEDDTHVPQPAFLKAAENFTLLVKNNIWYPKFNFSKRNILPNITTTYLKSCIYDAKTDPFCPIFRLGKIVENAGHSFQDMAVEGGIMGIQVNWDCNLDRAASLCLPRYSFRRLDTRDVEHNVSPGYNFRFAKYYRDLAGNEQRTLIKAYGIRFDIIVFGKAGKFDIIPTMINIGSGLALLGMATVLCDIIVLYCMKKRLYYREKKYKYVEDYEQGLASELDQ
In short: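 Calcium flux read by FLIPR for 120 sec after Bz-ATP challenge at EC80 (established each assay day), following 30 min room-temperature compound preincubation in dye-loaded stable human P2X4 HEK293 cells. Peak RFU over basal normalized to agonist control; IC50, maximal inhibition and Hill coefficient from triplicate means.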

human P2X4 [2] = target: T2, human P2X4; assay: FLIPR assay, human P2X4 1321N1 Astrocytoma cells; details: agonist Mg-ATP 0.5 μM (EC80)
Method: as §1

rat P2X4 = target: T3, rat P2X4 (Rattus norvegicus, UniProt P51577); assay: FLIPR assay, rat P2X4 1321N1 Astrocytoma cells; details: agonist Mg-ATP 5 μM (EC80)
T3 sequence (P51577 1-388): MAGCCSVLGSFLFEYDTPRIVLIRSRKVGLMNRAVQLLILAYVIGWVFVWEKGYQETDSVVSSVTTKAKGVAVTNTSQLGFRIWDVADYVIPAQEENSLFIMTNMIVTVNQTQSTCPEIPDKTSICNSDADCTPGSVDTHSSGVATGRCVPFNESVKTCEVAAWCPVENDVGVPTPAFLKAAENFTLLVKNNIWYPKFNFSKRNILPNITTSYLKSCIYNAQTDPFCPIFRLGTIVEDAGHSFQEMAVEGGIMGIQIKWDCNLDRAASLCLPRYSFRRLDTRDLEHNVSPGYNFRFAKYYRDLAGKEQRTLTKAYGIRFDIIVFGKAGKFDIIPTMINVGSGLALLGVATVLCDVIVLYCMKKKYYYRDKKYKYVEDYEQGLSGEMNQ
Method: as §1

Mouse P2X4 1321N1 Astrocytoma Cells (FLIPR Assay) avg Efficacy [%] (mouse P2X4): 69%
Emax (human P2X4 [1]): 71%
Human P2X4 1321N1 Astrocytoma Cells (FLIPR Assay) avg Efficacy [%] (human P2X4 [2]): 60%
Rat P2X4 1321N1 Astrocytoma Cells (FLIPR Assay) avg Efficacy [%] (rat P2X4): 57%
SMILES: NS(=O)(=O)c1cc(NC(=O)Cc2ccccc2Cl)ccc1-n1cc(C(F)(F)F)cn1 [Example 19, 2-(2-Chlorophenyl)-N-{3-sulfamoyl-4-[4-(trifluoromethyl)-1H-pyrazol-1-yl]phenyl}acetamide]
